Assay results published in patent US11564928B1, “Cannabinoid receptor type 2 (CB2) modulators and uses thereof” (Teon Therapeutics, Inc., priority 2020, dated 2023).
Like-named read-outs stand apart in the source and are kept apart here.

Experiments:
human CB2 receptor = human CB2 receptor (Homo sapiens (Human), UniProt P34972); test: CB2 receptor binding assay ([3H]CP-55,940 displacement, HEK-293 membranes)
Protocol: The compounds were evaluated in CB1R and CB2R binding assays using membranes from HEK-293 cells transfected with cDNAs encoding the human recombinant CB1R (Bmax=[…] protein) and human recombinant CB2R (Bmax=[…] protein) (Perkin-Elmer). […] Compounds were tested following the procedure described by the cell membrane manufacturer. […] CB2R binding assays were carried out with two different buffers: incubation buffer (Tris-HCl, 50 mM; MgCl2, 5 mM; CaCl2 1 mM; BSA, 0.2% at pH 7.4) and washing buffer (Tris-HCl, 50 mM; NaCl 500 mM; BSA, 0.1% at pH 7.4). […] Assays were performed in duplicate and incubated for […] at 37° C. […] Data are analyzed and IC50 is calculated using GraphPad Prism 5 and the model “log(inhibitor) vs. response—Variable slope”. The binding affinity of the compounds is Determined by Using the Cheng and Prusoff Equation Ki=IC50/(1+[radioligand]/Kd).

human recombinant CB1R = human recombinant CB1R (Homo sapiens (Human), UniProt P21554); test: CB1 receptor binding assay ([3H]CP-55,940 displacement, HEK-293 membranes)
Protocol: The compounds were evaluated in CB1R and CB2R binding assays using membranes from HEK-293 cells transfected with cDNAs encoding the human recombinant CB1R (Bmax=[…] protein) and human recombinant CB2R (Bmax=[…] protein) (Perkin-Elmer). […]. Compounds were tested following the procedure described by the cell membrane manufacturer. […] CB2R binding assays were carried out with two different buffers: incubation buffer (Tris-HCl, 50 mM; MgCl2, 5 mM; CaCl2 1 mM; BSA, 0.2% at pH 7.4) and washing buffer (Tris-HCl, 50 mM; NaCl 500 mM; BSA, 0.1% at pH 7.4). […] Assays were performed in duplicate and incubated for […] at 37° C. After the incubation, the assay mixture is filtered through 96 GF/C filter plates (Perkin Elmer #6005174) using Perkin Elmer Filtermate Harvester, and then washed four times with ice-cold washing buffer. The filters are dried for 1 hour at 50° C. and [^3H] trapped on filter counted for radioactivity in Perkin Elmer Microscint 20 cocktail (#6013329) using Perkin Elmer MicroBeta2 Reader. […] Data are analyzed and IC50 is calculated using GraphPad Prism 5 and the model “log(inhibitor) vs. response—Variable slope”. The binding affinity of the compounds is Determined by Using the Cheng and Prusoff Equation Ki=IC50/(1+[radioligand]/Kd).

[1] = membranes of HEK-293 cells with human recombinant CB2R, [3H]CP-55,940, read-out: CB2 IC50
[2] = membranes of HEK-293 cells with human recombinant CB1R, [3H]CP-55,940, read-out: CB1 IC50
[3] = membranes of HEK-293 cells with human recombinant CB2R, [3H]CP-55,940, class symbols, read-out: CB2 IC50
[4] = membranes of HEK-293 cells with human recombinant CB1R, [3H]CP-55,940, class symbols, read-out: CB1 IC50

human CB2 receptor, sequence (P34972 whole entry): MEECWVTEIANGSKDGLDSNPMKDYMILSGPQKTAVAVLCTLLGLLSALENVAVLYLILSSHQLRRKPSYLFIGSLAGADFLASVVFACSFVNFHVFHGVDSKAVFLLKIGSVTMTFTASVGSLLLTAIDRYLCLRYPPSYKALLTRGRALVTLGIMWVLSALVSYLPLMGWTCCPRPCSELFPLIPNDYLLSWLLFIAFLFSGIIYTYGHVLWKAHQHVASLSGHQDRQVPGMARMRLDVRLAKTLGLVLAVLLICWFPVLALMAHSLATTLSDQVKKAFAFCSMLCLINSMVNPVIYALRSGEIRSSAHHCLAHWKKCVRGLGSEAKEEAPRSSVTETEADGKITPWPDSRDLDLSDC
human recombinant CB1R, sequence (P21554 whole entry): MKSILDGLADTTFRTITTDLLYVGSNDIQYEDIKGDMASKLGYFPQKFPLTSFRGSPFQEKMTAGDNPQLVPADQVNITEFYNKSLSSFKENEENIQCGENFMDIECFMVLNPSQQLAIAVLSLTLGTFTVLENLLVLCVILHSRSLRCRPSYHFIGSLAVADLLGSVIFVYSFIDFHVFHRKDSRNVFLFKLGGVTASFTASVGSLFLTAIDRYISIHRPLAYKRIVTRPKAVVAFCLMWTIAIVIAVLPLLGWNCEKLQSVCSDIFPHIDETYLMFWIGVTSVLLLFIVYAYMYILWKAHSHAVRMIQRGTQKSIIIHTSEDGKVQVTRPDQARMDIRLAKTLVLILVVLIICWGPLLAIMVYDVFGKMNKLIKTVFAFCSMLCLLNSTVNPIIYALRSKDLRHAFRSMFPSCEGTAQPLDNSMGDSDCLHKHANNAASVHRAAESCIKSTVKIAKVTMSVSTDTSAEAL

Q: O=C(NC1CC2(CCC2)C1)c1cc2cc(Br)cnc2n(Cc2ccc(F)cc2)c1=O [Compound 81, 6-bromo-1-(4-fluorobenzyl)-2-oxo-N-(spiro[3.3]heptan-2-yl)-1,2-dihydro-1,8-naphthyridine-3-carboxamide] was tested. Which IC50 (human CB2 receptor; [1]) did it give?
A: 5 nM

Q: And the IC50 (human recombinant CB1R; [2])?
A: > 10000 nM

Q: Which IC50 (human CB2 receptor; [1]) does the source give for CC(C)c1cnc2c(c1)cc(C(=O)NC13CC(C1)C3)c(=O)n2Cc1ccc(F)cc1 [Compound 84, N-(bicyclo[1.1.1]pentan-1-yl)-1-(4-fluorobenzyl)-6-isopropyl-2-oxo-1,2-dihydro-1,8-naphthyridine-3-carboxamide] here?
A: 3.7 nM

Q: And the IC50 (human recombinant CB1R; [2])?
A: 413 nM

Q: Which IC50 (human CB2 receptor; [3]) does the source give for CC(C)c1cnc2c(c1)cc(C(=O)NC1(c3ccc(C#N)cc3)CC1)c(=O)n2Cc1ccc(F)cc1 [Compound 86, N-(1-(4-cyanophenyl)cyclopropyl)-1-(4-fluorobenzyl)-6-isopropyl-2-oxo-1,2-dihydro-1,8-naphthyridine-3-carboxamide] here?
A: < 100 nM

Q: What about the IC50 (human recombinant CB1R; [4]) of the same molecule?
A: > 1000 nM

Q: What does the source list for C[C@@H](NC(=O)c1cc2cc(Br)cnc2n(Cc2ccc(F)cc2)c1=O)c1ccc(F)cc1 [Compound 87, (R)-6-bromo-1-(4-fluorobenzyl)-N-(1-(4-fluorophenyl)ethyl)-2-oxo-1,2-dihydro-1,8-naphthyridine-3-carboxamide]?
A: IC50 (human CB2 receptor; [1]): 5 nM; IC50 (human recombinant CB1R; [2]): 4580 nM

Q: C=C(C)c1cnc2c(c1)cc(C(=O)N[C@H](C)c1ccc(F)cc1)c(=O)n2Cc1ccc(F)cc1 [Compound 88, (R)-1-(4-fluorobenzyl)-N-(1-(4-fluorophenyl)ethyl)-2-oxo-6-(prop-1-en-2-yl)-1,2-dihydro-1,8-naphthyridine-3-carboxamide] was tested. Which IC50 (human CB2 receptor; [1]) did it give?
A: 6.7 nM

Q: What about the IC50 (human recombinant CB1R; [2]) of the same molecule?
A: > 10000 nM

Q: For C[C@H](NC(=O)c1cc2cc(Br)cnc2n(Cc2ccc(F)cc2)c1=O)c1ccc(F)cc1 [Compound 90, (S)-6-bromo-1-(4-fluorobenzyl)-N-(1-(4-fluorophenyl)ethyl)-2-oxo-1,2-dihydro-1,8-naphthyridine-3-carboxamide], which IC50 (human CB2 receptor; [1]) is on record?
A: 11 nM

Q: And the IC50 (human recombinant CB1R; [2])?
A: 348 nM

Q: Which results are given for C[C@@H](NC(=O)c1cc2cc(Br)cnc2n(Cc2ccc(F)cc2)c1=O)c1ccc(C#N)cc1 [Compound 91, (R)-6-bromo-N-(1-(4-cyanophenyl)ethyl)-1-(4-fluorobenzyl)-2-oxo-1,2-dihydro-1,8-naphthyridine-3-carboxamide]?
A: IC50 (human CB2 receptor; [1]): 7 nM; IC50 (human recombinant CB1R; [2]): > 10000 nM

Q: What does the source list for O=C(NC1CC2(CCC2)C1)c1cc2cc(C3CC3)cnc2n(Cc2ccc(F)cc2)c1=O [Compound 93, 6-cyclopropyl-1-(4-fluorobenzyl)-2-oxo-N-(spiro[3.3]heptan-2-yl)-1,2-dihydro-1,8-naphthyridine-3-carboxamide]?
A: IC50 (human CB2 receptor; [1]): 3.6 nM; IC50 (human recombinant CB1R; [2]): > 10000 nM

Q: O=C(NC1CC2(CCC2)C1)c1cc2cc(Br)cnc2n(Cc2cccnc2)c1=O [Compound 96, 6-bromo-2-oxo-1-(pyridin-3-ylmethyl)-N-(spiro[3.3]heptan-2-yl)-1,2-dihydro-1,8-naphthyridine-3-carboxamide] was tested. Which IC50 (human CB2 receptor; [3]) did it give?
A: < 100 nM

Q: What about the IC50 (human recombinant CB1R; [4]) of the same molecule?
A: > 1000 nM

Q: For O=C(NC1CC2(CCC2)C1)c1cc2cc(-c3ccc(F)cc3)cnc2n(Cc2cccnc2)c1=O [Compound 97, 6-(4-fluorophenyl)-2-oxo-1-(pyridin-3-ylmethyl)-N-(spiro[3.3]heptan-2-yl)-1,2-dihydro-1,8-naphthyridine-3-carboxamide], which IC50 (human CB2 receptor; [3]) is on record?
A: < 100 nM

Q: And the IC50 (human recombinant CB1R; [4])?
A: > 1000 nM

Q: With C[C@@H](NC(=O)c1cc2cc(Br)cnc2n(Cc2ccc(C#N)cc2)c1=O)c1ccc(F)cc1 [Compound 104, (R)-6-bromo-1-(4-cyanobenzyl)-N-(1-(4-fluorophenyl)ethyl)-2-oxo-1,2-dihydro-1,8-naphthyridine-3-carboxamide] as the molecule, how does the IC50 (human CB2 receptor; [3]) read?
A: < 100 nM

Q: And the IC50 (human recombinant CB1R; [4])?
A: > 1000 nM

Q: O=C(NC1CC2(CCC2)C1)c1cc2cc(-c3ccc(F)cc3)cnc2n(Cc2ccccn2)c1=O [Compound 106, 6-(4-fluorophenyl)-2-oxo-1-(pyridin-2-ylmethyl)-N-(spiro[3.3]heptan-2-yl)-1,2-dihydro-1,8-naphthyridine-3-carboxamide] was tested. Which IC50 (human CB2 receptor; [3]) did it give?
A: < 100 nM

Q: And the IC50 (human recombinant CB1R; [4])?
A: > 1000 nM

Q: With CC(C)c1cnc2c(c1)cc(C(=O)N[C@H](C)c1ccc(C#N)cc1)c(=O)n2Cc1ccc(F)cn1 [Compound 108, (R)—N-(1-(4-cyanophenyl)ethyl)-1-((5-fluoropyridin-2-yl)methyl)-6-isopropyl-2-oxo-1,2-dihydro-1,8-naphthyridine-3-carboxamide] as the molecule, how does the IC50 (human CB2 receptor) read?
A: 100 to 999 nM

Q: And the IC50 (human recombinant CB1R; [4])?
A: > 1000 nM

Q: What does the source list for C[C@H]1CC[C@@H](NC(=O)c2c(O)c3cc(-c4ccc(F)cc4)cnc3n(CCN3CCOCC3)c2=O)CC1 [Compound 109, 6-(4-fluorophenyl)-4-hydroxy-N-((1s, 4s)-4-methylcyclohexyl)-1-(2-morpholinoethyl)-2-oxo-1,2-dihydro-1,8-naphthyridine-3-carboxamide]?
A: IC50 (human CB2 receptor; [3]): < 100 nM; IC50 (human recombinant CB1R; [4]): > 1000 nM

Q: With CC12CC(NC(=O)c3c(O)c4cc(-c5ccc(F)cc5)cnc4n(CCN4CCOCC4)c3=O)(C1)C2 [Compound 110, 6-(4-fluorophenyl)-4-hydroxy-N-(3-methylbicyclo[1.1.1]pentan-1-yl)-1-(2-morpholinoethyl)-2-oxo-1,2-dihydro-1,8-naphthyridine-3-carboxamide] as the molecule, how does the IC50 (human CB2 receptor) read?
A: 100 to 999 nM

Q: What about the IC50 (human recombinant CB1R) of the same molecule?
A: 100 to 999 nM

Q: With CC1(C)CC(NC(=O)c2c(O)c3cc(-c4ccc(F)cc4)cnc3n(CCN3CCOCC3)c2=O)C1 [Compound 111, N-(3,3-dimethylcyclobutyl)-6-(4-fluorophenyl)-4-hydroxy-1-(2-morpholinoethyl)-2-oxo-1,2-dihydro-1,8-naphthyridine-3-carboxamide] as the molecule, how does the IC50 (human CB2 receptor; [3]) read?
A: < 100 nM

Q: What about the IC50 (human recombinant CB1R) of the same molecule?
A: 100 to 999 nM

Q: Which results are given for O=C(NC1CC2(CC2)C1)c1c(O)c2cc(-c3ccc(F)cc3)cnc2n(CCN2CCOCC2)c1=O [Compound 112, 6-(4-fluorophenyl)-4-hydroxy-1-(2-morpholinoethyl)-2-oxo-N-(spiro[2.3]hexan-5-yl)-1,2-dihydro-1,8-naphthyridine-3-carboxamide]?
A: IC50 (human CB2 receptor; [3]): < 100 nM; IC50 (human recombinant CB1R; [4]): > 1000 nM

Q: Which IC50 (human CB2 receptor; [3]) does the source give for C[C@H]1C[C@@H](NC(=O)c2c(O)c3cc(-c4ccc(F)cc4)cnc3n(CCN3CCOCC3)c2=O)C1 [Compound 113, 6-(4-fluorophenyl)-4-hydroxy-N-((1s, 3s)-3-methylcyclobutyl)-1-(2-morpholinoethyl)-2-oxo-1,2-dihydro-1,8-naphthyridine-3-carboxamide] here?
A: > 1000 nM

Q: And the IC50 (human recombinant CB1R; [4])?
A: > 1000 nM

Q: With C[C@H]1C[C@H](NC(=O)c2c(O)c3cc(-c4ccc(F)cc4)cnc3n(CCN3CCOCC3)c2=O)C1 [Compound 114, 6-(4-fluorophenyl)-4-hydroxy-N-((1r, 3r)-3-methylcyclobutyl)-1-(2-morpholinoethyl)-2-oxo-1,2-dihydro-1,8-naphthyridine-3-carboxamide] as the molecule, how does the IC50 (human CB2 receptor) read?
A: 100 to 999 nM

Q: What about the IC50 (human recombinant CB1R; [4]) of the same molecule?
A: > 1000 nM

Q: Which results are given for O=C(NC12CCC(C1)C2)c1c(O)c2cc(-c3ccc(F)cc3)cnc2n(CCN2CCOCC2)c1=O [Compound 115, N-(bicyclo[2.1.1]hexan-1-yl)-6-(4-fluorophenyl)-4-hydroxy-1-(2-morpholinoethyl)-2-oxo-1,2-dihydro-1,8-naphthyridine-3-carboxamide]?
A: IC50 (human CB2 receptor; [1]): 29 nM; IC50 (human recombinant CB1R; [2]): 552 nM

Q: How did the IC50 (human CB2 receptor; [1]) turn out when O=C(NC12CCC(CC1)CC2)c1c(O)c2cc(-c3ccc(F)cc3)cnc2n(CCN2CCOCC2)c1=O [Compound 116, N-(bicyclo[2.2.2]octan-1-yl)-6-(4-fluorophenyl)-4-hydroxy-1-(2-morpholinoethyl)-2-oxo-1,2-dihydro-1,8-naphthyridine-3-carboxamide] was run?
A: 31 nM

Q: What about the IC50 (human recombinant CB1R; [2]) of the same molecule?
A: 1480 nM

Q: What does the source list for CC(C)(CO)NC(=O)c1c(O)c2cc(-c3ccc(F)cc3)cnc2n(CCN2CCOCC2)c1=O [Compound 117, 6-(4-fluorophenyl)-4-hydroxy-N-(1-hydroxy-2-methylpropan-2-yl)-1-(2-morpholinoethyl)-2-oxo-1,2-dihydro-1,8-naphthyridine-3-carboxamide]?
A: IC50 (human CB2 receptor): 100 to 999 nM; IC50 (human recombinant CB1R; [4]): > 1000 nM

Q: For CC(C)(C)NC(=O)c1c(O)c2cc(-c3ccc(F)cc3)cnc2n(CCN2CCOCC2)c1=O [Compound 118, N-(tert-butyl)-6-(4-fluorophenyl)-4-hydroxy-1-(2-morpholinoethyl)-2-oxo-1,2-dihydro-1,8-naphthyridine-3-carboxamide], which IC50 (human CB2 receptor) is on record?
A: 100 to 999 nM

Q: And the IC50 (human recombinant CB1R; [4])?
A: > 1000 nM
